Structures can show the parent of a compound that is named as a salt.
Columns and labels:
[1] = test system: 5-HT4 receptor subtype; settings: mouse embryonic colliculi neurons; cited from earlier work
[2] = test system: 5-HT4 receptors; settings: cited from earlier work
[3] = test system: gastric emptying of solid meals; test: Canine gastric emptying in vivo model, alpha-2 adrenergic model of gastroparesis, solid meal; set-up: species or system dog; settings: % emptied, treated, emptying delayed by alpha-2 adrenergic agonist
[4] = target: T1, 5-HT3 receptors (Mus musculus, UniProt P23979); test: Serotonin 5-HT3 receptor binding assay, [3H]GR65630, NG108-15 membranes; settings: for Ki: Ki (5-HT3 receptors), [3H]GR65630 1 nM, apparent Ki calculated from IC50
T1 construct: endogenous in cells; host or cells: NG108-15 neuroblastoma cells (membranes)
T1 sequence (P23979 24-489): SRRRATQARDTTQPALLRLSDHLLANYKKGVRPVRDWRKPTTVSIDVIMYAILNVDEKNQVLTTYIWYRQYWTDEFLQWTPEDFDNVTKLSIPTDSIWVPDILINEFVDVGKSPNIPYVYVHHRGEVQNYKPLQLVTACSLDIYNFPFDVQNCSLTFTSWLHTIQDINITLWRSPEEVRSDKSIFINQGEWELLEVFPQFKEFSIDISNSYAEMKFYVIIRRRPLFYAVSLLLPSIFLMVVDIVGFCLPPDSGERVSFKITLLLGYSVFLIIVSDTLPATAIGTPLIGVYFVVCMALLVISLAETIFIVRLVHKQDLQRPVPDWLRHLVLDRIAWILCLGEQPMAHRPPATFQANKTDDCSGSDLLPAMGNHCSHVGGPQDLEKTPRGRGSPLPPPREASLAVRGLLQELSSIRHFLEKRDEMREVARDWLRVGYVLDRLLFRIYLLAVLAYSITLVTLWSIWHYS
Experimental: Preparation of Membrane Suspensions
NG108-15 neuroblastoma cells were cultured at 37° C. in closed culture flasks for 3-4 days or to confluence (6-16×10^6 cells/flask). […] The cells were centrifuged at 900×g for five minutes at 4° C. At this point the cells could be frozen. The (frozen or freshly prepared) pellets from each flask were suspended in 4 ml buffer and homogenized a second time as above. The resulting supernatant was used for radioligand binding studies.
To each well of a microtiter plate were added 100 μl tissue, 50 μl [^3 H]GR65630 (4 nM stock, SA=64 Ci/mmol from Dupont/NEN) and 50 μl drugs. Nonspecific binding was measured in the presence of 10 μM zacopride. Reactions were incubated for 45-60 minutes at 25° C. followed by filtration under reduced pressure through GF/B-type filters with the aid of either a Brandel or Skatron macro harvester. The filters were washed with ice-cold buffer (a 6 sec wash time on the Skatron harvester, using filters presoaked with polyethylenimine) and specific binding was measured by either a Packard CA 1900 or an LKB Betaplate counter. […] IC50 values were determined for test drugs, and Ki values calculated from the equation: […]

[5] = test system: GI transit; settings: man; cited from earlier work
[6] = test system: GI transit; settings: man; cited from earlier work; remark: listed apart in the source
[7] = test system: guinea pig stomach muscle strip; settings: cited from earlier work
[8] = test system: gastric emptying; settings: cited from earlier work
[9] = test system: gastric emptying; settings: in vivo; cited from earlier work
[10] = test system: antroduodenal motility; settings: coadministered with cisapride; dogs; cited from earlier work
[11] = test system: transit of a charcoal meal; settings: mouse, in vivo; cited from earlier work
[12] = test system: peristalsis in the GI tract; settings: various animal models; cited from earlier work
[13] = test system: guinea pig stomach strips; settings: cited from earlier work
[14] = test system: 5-HT3-mediated Bezold Jarisch reflex; settings: in vivo; cited from earlier work

Question: For `COc1cc(N)c(Cl)cc1C(=O)NC1CCN2CCCC1C2` (stereo not shown) [BRL-24924], which “correlation of prokinetic activity with 5-HT4 agonist activity” value [1] is on record?
Answer: correlate with agonist activity at a novel 5-HT4 receptor subtype

Question: What about the “receptor mediating the peristaltic reflex” value [2] of the same compound?
Answer: mediated through agonism at 5-HT4 receptors

Question: With `COc1cc(N)c(Cl)cc1C(=O)NC1CCN(CCCOc2ccc(F)cc2)CC1OC` (stereo not shown) [Cisapride] as the compound, how does the “Canine Solid Gastric Emptying (% Control to Treat)” value ([3]; control 23.2%, at 0.3 mg/kg IG) read?
Answer: 36.6%

Question: What about the “correlation of prokinetic activity with 5-HT4 agonist activity” value [1] of the same compound?
Answer: correlate with agonist activity at a novel 5-HT4 receptor subtype

Question: For `COc1cc(N)c(Cl)cc1C(=O)NCC1C2CC3CC1CN(C3)C2` (stereo not drawn) [Example 2, Endo-4-amino-N-(1-azacyclo[3.3.1.1^3,7]decan-4-ylmethyl)-5-chloro-2-methoxybenzamide hydrochloride], which Ki ([4]; NG108-15 membranes, 25° C.) is on record?
Answer: 144 nM

Question: With `COc1cc(N)c(Cl)cc1C(=O)NCC1C2CC3CC1CN(C3)C2` (stereo not drawn) [Example 4, Exo-4-amino-N-(1-azacyclo[3.3.1.1^3,7]decan-4-ylmethyl)-5-chloro-2-methoxybenzamide, hydrochloride] as the compound, how does the “Canine Solid Gastric Emptying (% Control to Treat)” value ([3]; control 20.2%, at 0.3 mg/kg IV) read?
Answer: 35.1%

Question: What about the Ki ([4]; NG108-15 membranes, 25° C.) of the same compound?
Answer: 25.7 nM

Question: For `Cc1nccn1CC1CCc2c(c3ccccc3n2C)C1=O` (stereo not shown) [GR38032], which “small intestinal transit times or mouth-to-cecum transit times” value [5] is on record?
Answer: did not alter small intestinal transit times or mouth-to-cecumtransit times

Question: And the GI transit [6]?
Answer: failed to accelerate GI transit

Question: And the colonic transit [6]?
Answer: slowed colonic transit in man

Question: For `CN1[C@@H]2CC[C@H]1C[C@@H](OC(=O)c1c[nH]c3ccccc13)C2` [ICS-205930], which “guinea pig stomach muscle strip contraction in vitro” value [7] is on record?
Answer: enhanced guinea pig stomach muscle strip contraction in vitro

Question: What about the “gastric emptying rates in vivo” value [8] of the same compound?
Answer: increases in gastric emptying rates in vivo

Question: And the gastric emptying [9]?
Answer: enhanced gastric emptying

Question: What about the “effect on the responses to cisapride” value [10] of the same compound?
Answer: did not affect the responses to cisapride

Question: For `CN1[C@@H]2CC[C@H]1C[C@@H](OC(=O)c1cc(Cl)cc(Cl)c1)C2` [MDL 72222], which “guinea pig stomach muscle strip contraction in vitro” value [7] is on record?
Answer: enhanced guinea pig stomach muscle strip contraction in vitro

Question: And the “gastric emptying rates in vivo” value [8]?
Answer: increases in gastric emptying rates in vivo

Question: For `Cc1nccn1CC1CCc2c(c3ccccc3n2C)C1=O.Cl.O.O` (stereo not shown) [SN-307], which “transit of a charcoal meal in mice” value [11] is on record?
Answer: enhanced transit of a charcoal meal in mice

Question: With `NCCc1c[nH]c2ccc(O)cc12` [Serotonin, 5-hydroxytryptamine] as the compound, how does the “receptor mediating the peristaltic reflex” value [2] read?
Answer: mediated through agonism at 5-HT4 receptors

Question: What about the “peristalsis in the GI tract” value [12] of the same compound?
Answer: promote peristalsis in the GI tract

Question: What does the source list for `Cc1nc[nH]c1CCC(=O)c1cn(C)c2ccccc12` [[^3 H]GR65630]?
Answer: Kd [4]: 1.5 nM; Bmax ([4]; radioligand, NG108-15 membranes, 25° C.): 195 fmole/mg protein

Question: Which “electrical-field stimulated contractions in guinea pig stomach strips” value [13] does the source give for `CCN(CC)CCNC(=O)c1cc(Cl)c(N)cc1OC` [metoclopramide] here?
Answer: enhanced electrical-field stimulated contractions

Question: What about the “guinea pig stomach muscle strip contraction in vitro” value [7] of the same compound?
Answer: enhanced guinea pig stomach muscle strip contraction in vitro

Question: What about the “gastric emptying rates in vivo” value [8] of the same compound?
Answer: increases in gastric emptying rates in vivo

Question: What about the “5-HT3-mediated Bezold Jarisch reflex” value [14] of the same compound?
Answer: blocks the 5-HT3 -mediated Bezold Jarisch reflex

Reference: patent publication US5643917A, “4-aminomethyl-1-azaadamantane derived benzamides” (priority 1995, dated 1997)
